# Columns and labels:
# Test in all cases: Spore germination test
# Assay type in all cases: cell-based
# [1] = test system: Alternaria solani; conditions: AS, 48 hours
# Method in brief: (§1)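 Compound was delivered in acetone into water agar at final 40, 10, 2.5 and 1 ppm. Alternaria solani and Botrytis cinerea spores were applied as sterile-water suspensions, while Erysiphe polygoni and Uromyces phaseoli spores were brushed on from infected leaves. After 48 h at 24° C., percentage germination was converted to a rating.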
# [2] = test system: Uromyces phaseoli; conditions: UP, 48 hours
# Method in brief: as §1
# [3] = test system: Erysiphe polygoni; conditions: EP, 48 hours
# Method in brief: as §1
Structure (SMILES),Spore Germination Rating ([1]; 1.0 ppm),Spore Germination Rating ([1]; 2.5 ppm),Spore Germination Rating ([1]; 10 ppm),Spore Germination Rating ([1]; 40 ppm),Spore Germination Rating ([2]; 1.0 ppm),Spore Germination Rating ([2]; 2.5 ppm),Spore Germination Rating ([2]; 10 ppm),Spore Germination Rating ([2]; 40 ppm),Spore Germination Rating ([3]; 1.0 ppm),Spore Germination Rating ([3]; 2.5 ppm),Spore Germination Rating ([3]; 10 ppm),Spore Germination Rating ([3]; 40 ppm)
"O=c1c(Cl)nsnc1Oc1c(Cl)cccc1Cl [Compound 18, 3-chloro-5-(2,6-dichlorophenoxy)-4H--1,2,6-thiadiazin-4-one]",3 (60-80),2 (40-60),1 (10-40),0 (0-10),0 (0-10),0 (0-10),0 (0-10),0 (0-10),2 (40-60),1 (10-40),0 (0-10),0 (0-10)
"O=c1c(Cl)nsnc1Oc1cccc(Cl)c1Cl [Compound 19, 3-chloro-5-(2,3-dichlorophenoxy)-4H--1,2,6-thiadiazin-4-one]",3 (60-80),3 (60-80),0 (0-10),0 (0-10),0 (0-10),0 (0-10),0 (0-10),0 (0-10),3 (60-80),1 (10-40),0 (0-10),0 (0-10)
"O=c1c(Cl)nsnc1Oc1cc(Cl)cc(Cl)c1 [Compound 20, 3-chloro-5-(3,5-dichlorophenoxy)-4H--1,2,6-thiadiazin-4-one]",2 (40-60),0 (0-10),0 (0-10),0 (0-10),0 (0-10),0 (0-10),0 (0-10),0 (0-10),3 (60-80),0 (0-10),0 (0-10),0 (0-10)
"Cc1cccc(Oc2nsnc(Cl)c2=O)c1 [Compound 21, 3-chloro-5-(3-methylphenoxy)-4H--1,2,6-thiadiazin-4-one]",3 (60-80),1 (10-40),0 (0-10),0 (0-10),4 (80-100),2 (40-60),0 (0-10),0 (0-10),4 (80-100),3 (60-80),2 (40-60),0 (0-10)
"Cc1ccccc1Oc1nsnc(Cl)c1=O [Compound 22, 3-chloro-5-(2-methylphenoxy)-4H--1,2,6-thiadiazin-4-one]",3 (60-80),0 (0-10),0 (0-10),0 (0-10),4 (80-100),2 (40-60),1 (10-40),0 (0-10),4 (80-100),4 (80-100),3 (60-80),1 (10-40)
"Cc1ccc(Oc2nsnc(Cl)c2=O)c(C)c1 [Compound 23, 3-chloro-5-(2,4-dimethylphenoxy)-4H--1,2,6-thiadiazin-4-one]",3 (60-80),3 (60-80),0 (0-10),0 (0-10),4 (80-100),4 (80-100),1 (10-40),0 (0-10),4 (80-100),4 (80-100),3 (60-80),1 (10-40)
"Cc1cccc(C)c1Oc1nsnc(Cl)c1=O [Compound 24, 3-chloro-5-(2,6-dimethylphenoxy)-4H--1,2,6-thiadiazin-4-one]",1 (10-40),1 (10-40),0 (0-10),0 (0-10),1 (10-40),0 (0-10),0 (0-10),0 (0-10),3 (60-80),1 (10-40),0 (0-10),0 (0-10)
"Cc1cc(C)cc(Oc2nsnc(Cl)c2=O)c1 [Compound 25, 3-chloro-5-(3,5-dimethylphenoxy)-4H--1,2,6-thiadiazin-4-one]",4 (80-100),2 (40-60),0 (0-10),0 (0-10),4 (80-100),2 (40-60),1 (10-40),0 (0-10),4 (80-100),4 (80-100),0 (0-10),0 (0-10)
"Nc1ccc(Oc2nsnc(Cl)c2=O)cc1 [Compound 26, 5-(4-aminophenoxy)-3-chloro-4H--1,2,6-thiadiazin-4-one]",4 (80-100),3 (60-80),0 (0-10),0 (0-10),2 (40-60),3 (60-80),4 (80-100),2 (40-60),4 (80-100),4 (80-100),4 (80-100),4 (80-100)
"CNC(=O)Nc1ccc(Oc2nsnc(Cl)c2=O)cc1 [Compound 28, 3-chloro-5-[4-(3-methylureido)-phenoxy]-4H--1,2,6-thiadiazin-4-one]",4 (80-100),4 (80-100),4 (80-100),4 (80-100),4 (80-100),2 (40-60),2 (40-60),2 (40-60),4 (80-100),4 (80-100),4 (80-100),4 (80-100)
"O=C(Nc1ccccc1)Nc1ccc(Oc2nsnc(Cl)c2=O)cc1 [Compound 29, 3-chloro-5-[4-(3-phenylureido)-phenoxy]-4H--1,2,6-thiadiazin-4-one]",4 (80-100),4 (80-100),4 (80-100),4 (80-100),4 (80-100),2 (40-60),2 (40-60),0 (0-10),4 (80-100),4 (80-100),4 (80-100),1 (10-40)
"O=c1c(Cl)nsnc1Oc1c(Cl)cc(Cl)cc1Cl [Compound 30, 3-chloro-5-(2,4,6-trichlorophenoxy)-4H--1,2,6-thiadiazin-4-one]",3 (60-80),0 (0-10),0 (0-10),0 (0-10),0 (0-10),0 (0-10),0 (0-10),0 (0-10),1 (10-40),0 (0-10),0 (0-10),0 (0-10)
"O=c1c(Cl)nsnc1Oc1c(Cl)c(Cl)c(Cl)c(Cl)c1Cl [Compound 31, 3-chloro-5-(pentachlorophenoxy)-4H--1,2,6-thiadiazine-4-one]",4 (80-100),1 (10-40),0 (0-10),0 (0-10),0 (0-10),0 (0-10),0 (0-10),0 (0-10),0 (0-10),0 (0-10),1 (10-40),0 (0-10)
"O=c1c(Cl)nsnc1Oc1cccc2ccccc12 [Compound 32, 3-chloro-5(1-naphthoxy)-4H-1,2,6-thiadiazin-4-one]",3 (60-80),1 (10-40),0 (0-10),0 (0-10),3 (60-80),0 (0-10),0 (0-10),0 (0-10),2 (40-60),2 (40-60),0 (0-10),0 (0-10)
"O=c1c(Cl)nsnc1Oc1ccccc1Br [Compound 34, 3-chloro-5-(2-bromophenoxy)-4H-1,2,6,-thiadiazin-4-one]",4 (80-100),1 (10-40),0 (0-10),0 (0-10),0 (0-10),0 (0-10),0 (0-10),0 (0-10),0 (0-10),2 (40-60),0 (0-10),0 (0-10)
"O=c1c(Cl)nsnc1Oc1ccc(O)cc1 [Compound 35, 3-chloro-5-(4-hydroxyphenoxy)-4H-1,2,6-thiadiazin-4-one]",4 (80-100),4 (80-100),3 (60-80),0 (0-10),0 (0-10),0 (0-10),0 (0-10),0 (0-10),4 (80-100),4 (80-100),2 (40-60),1 (10-40)
"O=C(Nc1ccccc1)Oc1ccc(Oc2nsnc(Cl)c2=O)cc1 [Compound 37, 3-chloro-5-[4-(phenylaminocarbonyloxy)phenoxy]-4H-1,2,6,-thiadiazin-4-one]",4 (80-100),4 (80-100),4 (80-100),3 (60-80),4 (80-100),2 (40-60),1 (10-40),1 (10-40),4 (80-100),4 (80-100),4 (80-100),3 (60-80)

# From patent US4450269A, “Mono-5-substituted-3-chloro-4H-1,2,6-thiadiazin-4-one antifungal agents” (FMC Corporation, priority 1980, dated 1984)
